Assay [1] has as its target T1, COX-1 (Ovis aries, UniProt P05979).
T1 construct: purchased Biovision K548
T1 sequence (P05979 25-600): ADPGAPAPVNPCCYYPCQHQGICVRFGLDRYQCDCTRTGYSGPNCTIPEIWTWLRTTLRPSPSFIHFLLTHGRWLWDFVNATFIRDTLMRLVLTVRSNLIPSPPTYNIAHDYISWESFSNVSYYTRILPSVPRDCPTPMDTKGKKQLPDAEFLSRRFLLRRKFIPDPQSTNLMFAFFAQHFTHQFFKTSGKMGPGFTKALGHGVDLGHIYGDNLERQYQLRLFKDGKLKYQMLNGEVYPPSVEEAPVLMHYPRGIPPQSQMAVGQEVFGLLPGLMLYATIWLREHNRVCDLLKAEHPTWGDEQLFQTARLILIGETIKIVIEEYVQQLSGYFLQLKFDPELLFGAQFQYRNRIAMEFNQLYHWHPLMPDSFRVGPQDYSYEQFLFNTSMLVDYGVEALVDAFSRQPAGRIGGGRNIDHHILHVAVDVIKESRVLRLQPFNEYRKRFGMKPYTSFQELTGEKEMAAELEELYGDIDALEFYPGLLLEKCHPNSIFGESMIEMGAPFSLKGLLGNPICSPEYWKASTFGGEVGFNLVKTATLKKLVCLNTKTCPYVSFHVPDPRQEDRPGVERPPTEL
Nature of the assay: In vitro COX-1 inhibition (COX-1 Inhibitor Screening Kit-K548, Biovision). Format: biochemical. Particulars: mean of six values ± standard deviation. Here is the method: (§1) The IC50 value of the tested compounds was determined.
COX-1 inhibitor Screening Protocol: Dissolve the tested compounds in DMSO. Use COX assay buffer to dilute the relevant test concentration by 10X before using. Place 10 µl of diluted test inhibitor or assay buffer in the specified wells instead of the sample screen (S) or enzyme control (EC; no inhibitor). To one of the wells, add 2 µl of SC560 and 8 µl of COX Assay Buffer as an inhibitor control (IC). Before using, combine 2 µl of COX Cofactor with 398 µl of COX Assay Buffer to dilute COX cofactor 200 times. Blend thoroughly. Just before using, mix 5 µl of the provided arachidonic acid with 5 µl of NaOH to make the arachidonic acid solution. Combine quickly using a vortex. To dilute the arachidonic acid/NaOH solution 10 times, add 90 µl of water. There should be 80 µl of reaction mix in each well. Using a multi-channel pipette, add 10 µl of diluted arachidonic acid/NaOH solution to each well to initiate all the reactions at once.

For assay [2], the target named is T2, COX-2 (Homo sapiens, UniProt P35354).
T2 construct: purchased Biovision K547
T2 sequence (P35354 18-604): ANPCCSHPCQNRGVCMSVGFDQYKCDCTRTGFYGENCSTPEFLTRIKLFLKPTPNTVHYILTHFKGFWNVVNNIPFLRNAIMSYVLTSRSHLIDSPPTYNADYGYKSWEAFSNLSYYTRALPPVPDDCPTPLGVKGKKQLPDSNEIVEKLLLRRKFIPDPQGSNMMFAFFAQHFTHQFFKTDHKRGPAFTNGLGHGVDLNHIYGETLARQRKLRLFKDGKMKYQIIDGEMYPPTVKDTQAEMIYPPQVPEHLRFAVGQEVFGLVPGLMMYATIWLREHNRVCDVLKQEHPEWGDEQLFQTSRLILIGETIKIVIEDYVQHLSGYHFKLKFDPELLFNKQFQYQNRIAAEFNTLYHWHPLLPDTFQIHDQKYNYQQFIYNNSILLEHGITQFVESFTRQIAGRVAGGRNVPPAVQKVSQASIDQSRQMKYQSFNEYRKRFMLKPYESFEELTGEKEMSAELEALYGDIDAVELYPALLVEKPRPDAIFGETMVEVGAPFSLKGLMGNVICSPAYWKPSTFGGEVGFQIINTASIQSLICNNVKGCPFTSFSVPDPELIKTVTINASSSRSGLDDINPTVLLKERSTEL
Nature of the assay: In vitro COX-2 inhibition (COX-2 Inhibitor Screening Kit-K547, Biovision). Format: biochemical. The conditions noted are these: for IC50: mean of six values ± standard deviation. As to the method: as §1
COX-2 inhibitor Screening Protocol: Dissolve the tested compounds in DMSO. Use COX Assay Buffer to dilute the relevant test concentration by 10X before using. Place 10 µl of diluted test inhibitor or Assay Buffer in the specified wells instead of the sample screen (S) or enzyme control (EC; no inhibitor). […] Before using, combine 2 µl of COX Cofactor with 398 µl of COX Assay Buffer to dilute COX Cofactor 200 times. Blend thoroughly. Just before using, mix 5 µl of the provided arachidonic acid with 5 µl of NaOH to make the arachidonic acid solution. Combine quickly using a vortex. To dilute the arachidonic acid/NaOH solution 10 times, add 90 µl of water. There should be 80 µl of reaction mix in each well. Using a multi-channel pipette, add 10 µl of diluted arachidonic acid/NaOH solution into each well to initiate the reactions concurrently.

Assay [3] relates to PGE2. The assay can be described thus: PGE2 production in LPS-activated RAW 264.7 macrophages (ELISA). The conditions noted are these: Mus musculus, RAW264.7, read-out: PGE2 IC50. A general note: In an ELISA, binding on a coated surface is turned into a signal by an enzyme label.
Assay [4] has as its target T3, 5-LOX (Homo sapiens, UniProt P09917).
T3 sequence (P09917 1-674): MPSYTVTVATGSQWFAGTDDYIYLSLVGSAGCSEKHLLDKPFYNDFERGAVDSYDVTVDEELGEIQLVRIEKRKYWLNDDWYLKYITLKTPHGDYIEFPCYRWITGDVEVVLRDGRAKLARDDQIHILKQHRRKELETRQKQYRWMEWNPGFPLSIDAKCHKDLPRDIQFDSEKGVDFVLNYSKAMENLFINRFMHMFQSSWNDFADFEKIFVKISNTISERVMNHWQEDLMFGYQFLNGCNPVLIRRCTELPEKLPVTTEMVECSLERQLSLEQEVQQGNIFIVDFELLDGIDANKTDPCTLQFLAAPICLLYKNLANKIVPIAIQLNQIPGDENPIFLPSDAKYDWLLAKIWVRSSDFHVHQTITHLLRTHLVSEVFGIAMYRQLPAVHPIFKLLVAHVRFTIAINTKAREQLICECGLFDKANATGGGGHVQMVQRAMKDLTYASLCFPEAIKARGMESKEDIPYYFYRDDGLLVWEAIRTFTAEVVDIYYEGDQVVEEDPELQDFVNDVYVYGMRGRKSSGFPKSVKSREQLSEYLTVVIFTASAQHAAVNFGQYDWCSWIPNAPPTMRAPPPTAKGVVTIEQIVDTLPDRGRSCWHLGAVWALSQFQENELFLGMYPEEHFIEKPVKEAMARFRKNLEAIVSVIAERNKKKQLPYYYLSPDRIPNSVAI
Nature of the assay: In vitro 5-LOX inhibition (5-Lipoxygenase Inhibitor Screening Kit K980-100, Biovision).
Experimental: 5-LOX inhibitor Screening Protocol: dissolve the test compounds in DMSO. The solution was prepared at a concentration so that the final 100 µl reaction volume per well contains no more than 2 µl of the test chemical solution added to it. Each well was filled in the 96-well white plate with 2 µl of the test substance. […] To the “Enzyme Control” well, was filled with 40 µl of LOX Assay Buffer. In order to run the required number of assays, enough reagents were mixed. 40 µl of the following mix was prepared for each well: Buffer for Reaction MIx LOX Assay 34 µl LOX Probe 2 µl 5. LOX Enzyme 4 µl After thoroughly mixing, the Reaction Mix was transferred to the wells holding the Test Compounds, Enzyme Control, Inhibitor Control, and “Solvent Control.” substrate was added after 10 min of RT incubation of the plate. The wells shouldn’t contain any bubbles. […] To obtain the 5X solution, the 500 X solution with LOX Assay Buffer was diluted at a ratio of 1:100, depending on the number of reactions to be conducted. For each reaction, 20 µl of 5X solution will be required. How much substrate is needed based on the number of reactions. The final substrate functioning solution needs to be consumed that same day and stored on ice. The remaining stock solution should be immediately stored at -20 °C. 20 µl of 5X LOX Substrate should be added with a multichannel pipette to every well. […] To get the RFU for each sample, the RFU was subtracted at time t1 from the RFU at time t2, making sure that both t2 and t1 fall within the assay's linear range. The slope for each sample (including the “enzyme control”)was multiplied by the time Δt (t2 – t1) to find the ΔRFU. In the equations below, the values was substituted for “Solvent Control” for “Enzyme Control” if the two slopes disagree. %Inhibition=[slopeof(enzymecontrol)-slopeof(testcompound)]/slopeof(enzymecontrol)×100 %Relativeactivity=[slope(testcompound)]/slope(enzymecontrol)×100

Results on three compounds are retold here after publication PMC12926254, “Novel pyrazole carboxylate derivatives as lonazolac bioisosteres with selective COX-2 inhibition: design, synthesis and anti-inflammatory activity” (Molecular Diversity, 2025).

A word on the IC50: it is the point on the concentration scale where inhibition reaches its midpoint. In the case of `CCOC(=O)COc1ccc(C2=NN(c3ccc(S(C)(=O)=O)cc3)C(c3cc(OC)c(OC)c(OC)c3)C2)cc1` (stereo not shown) [Compound 15d, Ethyl 2-(4-(1-(4-(methylsulfonyl)phenyl)-5-(3,4,5-trimethoxyphenyl)-4,5-dihydro-1H-pyrazol-3-yl)phenoxy)acetate], the IC50 in assay [1] came out at 15500 ± 610 nM; in assay [2], 221 ± 7 nM; in assay [3] it was 330 ± 21 nM; in assay [4], 241 ± 9 nM.

On to `CCOC(=O)COc1ccc(C2=NN(c3ccc(S(C)(=O)=O)cc3)C(c3ccc(Br)cc3)C2)cc1` (stereo not shown) [Compound 15 h, Ethyl 2-(4-(5-(4-bromophenyl)-1-(4-(methylsulfonyl)phenyl)-4,5-dihydro-1H-pyrazol-3-yl)phenoxy)acetate], for which the half-inhibitory concentration (IC50) in assay [1] was found to be 6880 ± 250 nM; in assay [2] it was 103 ± 3 nM; in assay [3], 280 ± 32 nM; in assay [4] it was 813 ± 32 nM.

On to `CCOC(=O)COc1ccc(C2=NN(c3ccc(S(C)(=O)=O)cc3)C(c3ccc(OC)cc3)C2)cc1` (stereo not shown) [Compound 15c, Ethyl 2-(4-(5-(4-methoxyphenyl)-1-(4-(methylsulfonyl)phenyl)-4,5-dihydro-1H-pyrazol-3-yl)phenoxy)acetate], for which the IC50 was found to be 11300 ± 450 nM in assay [1], 397 ± 13 nM in assay [2], 520 ± 29 nM in assay [3] and 453 ± 18 nM in assay [4]. Moreover, the “COX-2 S.I.” value in assay [2] (COX-1 IC50/COX-2 IC50) came to 28.56.
